± gives the standard deviation of the averaged measurements.
How the values were obtained:
[1] = compound: CCCS(=O)(=O)Nc1ccc(F)c(C(=O)c2c[nH]c3ncc(Cl)cc23)c1F [PLX-4720]; experiment: surviving fraction relative to DMSO-only wells; higher = less growth inhibition; conditions: exposure time: 5 days
Procedure, shortened: (§1)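 Tumour cell lines were grown to log phase and seeded at 250–500 cells per well in 384-well plates. They were exposed continuously to inhibitors at 0.5, 1, 5, 10, 50, 100, 500 and 1000 nM for five days, beginning 24 hours after seeding. Surviving fraction is CellTiter-Glo luminescence normalised to the median of DMSO-only wells.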

[2] = compound: COc1cc([C@@H]2c3cc4c(cc3[C@@H](O[C@@H]3O[C@@H]5CO[C@@H](C)O[C@H]5[C@H](O)[C@H]3O)[C@H]3COC(=O)[C@H]23)OCO4)cc(OC)c1O [ETOPOSIDE]; experiment: as above; conditions: exposure time: 5 days
Procedure, shortened: as §1

Test System | surviving fraction ([1]; 0.5 nM) | surviving fraction ([1]; 1 nM) | surviving fraction ([1]; 5 nM) | surviving fraction ([1]; 10 nM) | surviving fraction ([1]; 50 nM) | surviving fraction ([1]; 100 nM) | surviving fraction ([1]; 500 nM) | surviving fraction ([1]; 1000 nM) | surviving fraction ([2]; 0.5 nM) | surviving fraction ([2]; 1 nM) | surviving fraction ([2]; 5 nM) | surviving fraction ([2]; 10 nM) | surviving fraction ([2]; 50 nM) | surviving fraction ([2]; 100 nM) | surviving fraction ([2]; 500 nM) | surviving fraction ([2]; 1000 nM)
NY BONE | 0.905 ± 0.038 | 0.909 ± 0.026 | 0.933 ± 0.016 | 0.959 ± 0.02 | 0.949 ± 0.014 | 0.9663 ± 0.004 | 0.932 ± 0.0095 | 0.9273 ± 0.0065 | 1.01 ± 0.033 | 1.01 ± 0.035 | 1.07 ± 0.032 | 1.09 ± 0.066 | 1.07 ± 0.05 | 1.06 ± 0.03 | 0.797 ± 0.033 | 0.592 ± 0.021
OS25HAL BONE | 0.902 ± 0.013 | 0.925 ± 0.016 | 0.934 ± 0.0061 | 0.942 ± 0.02 | 0.976 ± 0.01 | 0.98 ± 0.015 | 0.966 ± 0.0046 | 0.974 ± 0.014 | 1 ± 0.018 | 0.996 ± 0.018 | 1.01 ± 0.015 | 1.01 ± 0.0071 | 1.07 ± 0.041 | 1.04 ± 0.019 | 0.497 ± 0.022 | 0.231 ± 0.024
OSHN BONE | 0.859 ± 0.011 | 0.882 ± 0.017 | 0.89 ± 0.025 | 0.904 ± 0.018 | 0.944 ± 0.035 | 0.9783 ± 0.0029 | 0.978 ± 0.019 | 0.975 ± 0.016 | 1.05 ± 0.025 | 1.05 ± 0.042 | 1.06 ± 0.046 | 1.06 ± 0.041 | 1.07 ± 0.042 | 1.07 ± 0.048 | 0.452 ± 0.042 | 0.174 ± 0.0076
PCI30 HEADNECK | 1.03 ± 0.057 | 0.987 ± 0.0079 | 1.01 ± 0.032 | 1.06 ± 0.011 | 1 ± 0.024 | 1.07 ± 0.082 | 0.938 ± 0.087 | 0.959 ± 0.07 | 0.943 ± 0.1 | 1.03 ± 0.025 | 1.02 ± 0.09 | 1 ± 0.041 | 1.07 ± 0.05 | 1.01 ± 0.053 | 0.579 ± 0.063 | 0.424 ± 0.031
RDES SOFT TISSUE | 0.795 ± 0.13 | 0.683 ± 0.12 | 0.7 ± 0.079 | 0.747 ± 0.058 | 1.04 ± 0.11 | 0.989 ± 0.25 | 0.994 ± 0.054 | 0.793 ± 0.13 | 1.08 ± 0.022 | 1.16 ± 0.21 | 1.1 ± 0.11 | 1.11 ± 0.071 | 0.854 ± 0.21 | 1.15 ± 0.3 | 0.232 ± 0.03 | 0.0647 ± 0.0021
S68 BREAST | 0.773 ± 0.17 | 0.685 ± 0.22 | 0.775 ± 0.18 | 0.778 ± 0.19 | 1 ± 0.31 | 1.06 ± 0.12 | 1.09 ± 0.16 | 0.962 ± 0.15 | 0.939 ± 0.27 | 1.1 ± 0.18 | 1.01 ± 0.072 | 1.44 ± 0.12 | 1.07 ± 0.22 | 0.776 ± 0.095 | 0.369 ± 0.016 | 0.297 ± 0.024
SAOS2 BONE | 0.824 ± 0.019 | 0.866 ± 0.013 | 0.891 ± 0.0052 | 0.831 ± 0.049 | 1.08 ± 0.038 | 1.12 ± 0.077 | 1.108 ± 0.0092 | 1.13 ± 0.095 | 1.03 ± 0.027 | 1.06 ± 0.028 | 1.17 ± 0.02 | 1.16 ± 0.049 | 1.13 ± 0.035 | 1.147 ± 0.011 | 0.783 ± 0.04 | 0.439 ± 0.022
SCC36 HEADNECK | 0.761 ± 0.06 | 0.694 ± 0.059 | 0.803 ± 0.036 | 0.76 ± 0.028 | 0.97 ± 0.058 | 0.983 ± 0.017 | 0.974 ± 0.13 | 0.958 ± 0.067 | 1.13 ± 0.12 | 1.05 ± 0.18 | 1.1 ± 0.12 | 1.08 ± 0.1 | 1.02 ± 0.052 | 1.15 ± 0.086 | 0.668 ± 0.035 | 0.512 ± 0.0061
SCC47 HEADNECK | 0.871 ± 0.025 | 0.853 ± 0.017 | 0.953 ± 0.041 | 0.884 ± 0.016 | 0.981 ± 0.03 | 1.09 ± 0.03 | 0.999 ± 0.14 | 1.01 ± 0.051 | 1.04 ± 0.11 | 1.05 ± 0.039 | 1.02 ± 0.025 | 1.08 ± 0.079 | 1.11 ± 0.071 | 1.06 ± 0.084 | 0.799 ± 0.07 | 0.575 ± 0.027
SCC90 HEADNECK | 0.874 ± 0.13 | 0.819 ± 0.034 | 0.955 ± 0.011 | 0.965 ± 0.17 | 1.18 ± 0.12 | 1.25 ± 0.077 | 0.64 ± 0.1 | 0.539 ± 0.053 | 1.02 ± 0.099 | 1.11 ± 0.12 | 1.18 ± 0.092 | 1.2 ± 0.2 | 1.22 ± 0.15 | 1.13 ± 0.13 | 0.999 ± 0.18 | 0.878 ± 0.21
